In this test the target is Cathepsin S (Homo sapiens, UniProt P25774). Kind of test: Cathepsin S inhibition, fluorogenic peptide substrate kinetic assay. It counts as biochemical. Conditions: Table II; Cathepsin S inhibition constant, pH5.5; read-out: Ki Cat. S. Put shortly:
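Reactions were started with 50 μM (final) acetyl-His-Pro-Val-Lys-aminocarbamoylcoumarin, and hydrolysis was followed by fluorescence (ex 380/em 450 nm). Apparent inhibition constants from enzyme progress curves were converted to Ki for competitive inhibitors using substrate concentration and Km.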
Cathepsin S, sequence (P25774 115-331, species assumed): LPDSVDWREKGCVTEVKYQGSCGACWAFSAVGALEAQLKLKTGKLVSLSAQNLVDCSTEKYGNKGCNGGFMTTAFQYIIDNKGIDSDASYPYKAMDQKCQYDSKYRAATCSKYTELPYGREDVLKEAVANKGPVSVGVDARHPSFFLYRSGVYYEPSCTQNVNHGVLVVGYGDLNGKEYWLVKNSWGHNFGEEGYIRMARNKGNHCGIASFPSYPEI
With `COc1cccc(C(=O)N[C@@H](CC2CCCCC2)C(=O)N[C@@H](CC(=O)O)CN2CCc3cc(F)ccc32)c1` [Compound 162, 3-(S)-[3-Cyclohexyl-2-(S)-(3-methoxy-benzoylamino)-propionylamino]-4-(5-fluoro-2,3-dihydro-indol-1-yl)-butyric acid], the inhibitory constant (Ki) is less than 100 nM.

Turning to `C[C@@H](CNc1ccc(C(=O)N(C)C)cc1)NC(=O)[C@H](CC1CCCCC1)NC(=O)c1ccc(-c2cccc(F)c2)o1` [Compound 122, 5-(3-Fluoro-phenyl)-furan-2-carboxylic acid {2-cyclohexyl-1-(S)-[2-(4-dimethylcarbamoyl-phenylamino)-1-(S)-methyl-ethylcarbamoyl]-ethyl}-amide], the Ki is less than 100 nM.

As to `Cc1nc(C)c(S(=O)(=O)N[C@@H](CC2CCCCC2)C(=O)N[C@@H](C)CN2CCc3cc(F)ccc32)s1` [Compound 210, (S,S)-3-Cyclohexyl-2-(2,4-dimethyl-thiazole-5-sulfonylamino)-N-[2-(5-fluoro-2,3-dihydro-indol-1-yl)-1-methyl-ethyl]-propionamide], the inhibition constant (Ki) is less than 100 nM.

Take `COc1ccc(Oc2ccc(S(=O)(=O)N[C@@H](CC3CCCCC3)C(=O)NCCN3CCc4cc(F)ccc43)cc2)cc1` [Compound 244, (S)-3-Cyclohexyl-N-[2-(5-fluoro-2,3-dihydro-indol-1-yl)-ethyl]-2-[4-(4-methoxy-phenoxy)-benzenesulfonylamino]-propionamide]: the Ki is less than 100 nM.

On to `COc1c(C)cc(NC[C@H](C)NC(=O)[C@H](CC2CCCCC2)NC(=O)c2ccc(-c3cccc(F)c3)o2)cc1C` [Compound 115, 5-(3-Fluoro-phenyl)-furan-2-carboxylic acid {2-cyclohexyl-1-(S)-[2-(4-methoxy-3,5-dimethyl-phenylamino)-1-(S)-methyl-ethylcarbamoyl]-ethyl}-amide], for which the inhibitory constant (Ki) is less than 100 nM.

As for `O=C(NCCN1CCc2cc(F)ccc21)[C@H](CC1CCCCC1)NS(=O)(=O)c1ccc(S(=O)(=O)c2ccccc2)s1` [Compound 256, (S)-2-(5-Benzenesulfonyl-thiophene-2-sulfonylamino)-3-cyclohexyl-N-[2-(5-fluoro-2,3-dihydro-indol-1-yl)-ethyl]-propionamide], the Ki is less than 1000 nM.

In the case of `COc1cccc(C(=O)N[C@@H](CCC2CCCCC2)C(=O)N[C@@H](CCCCN)CN2CCc3cc(F)ccc32)c1` [Compound 167, N-{1-(S)-[5-Amino-1-(S)-(5-fluoro-2,3-dihydro-indol-1-ylmethyl)-pentylcarbamoyl]-3-cyclohexyl-propyl}-3-methoxy-benzamide], the inhibition constant (Ki) is less than 100 nM.

Consider `O=C(N[C@@H](CC1CCCCC1)C(=O)NCCN1CCc2cc(F)ccc21)c1ccco1` [Compound 9, Furan-2-carboxylic acid (S)-{2-cyclohexyl-1-[2-(5-fluoro-2,3-dihydro-indol-1-yl)-ethylcarbamoyl]-ethyl}-amide], for which the inhibition constant (Ki) was less than 100 nM.

As for `C[C@@H](CNc1ccc2c(c1)OCO2)NC(=O)[C@H](CC1CCCCC1)NC(=O)c1ccc(-c2cccc(F)c2)o1` [Compound 85, 5-(3-Fluoro-phenyl)-furan-2-carboxylic acid {1-(S)-[2-(benzo[1,3]dioxol-5-ylamino)-1-(S)-methyl-ethylcarbamoyl]-2-cyclohexyl-ethyl}-amide], the Ki was less than 100 nM.

Consider `COc1ccc(N2CCC[C@@H](NC(=O)[C@H](CC(C)C)NC(=O)c3cccc(C)c3)C2)cc1` (single isomer, unassigned) [Compound 32], for which the inhibition constant Ki was less than 10000 nM.

Consider `CS(=O)(=O)N1CCC(Oc2ccc(C(=O)N[C@@H](CC3CCCCC3)C(=O)NCCN3CCc4cc(F)ccc43)cc2)CC1` [Compound 68, N-(S)-{2-cyclohexyl-1-[2-(5-fluoro-2,3-dihydro-indol-1-yl)-ethylcarbamoyl]-ethyl}-4-(1-methanesulfonyl-piperidin-4-yloxy)-benzamide], for which the inhibition constant (Ki) was less than 1000 nM.

Turning to `C[C@@H](CNc1ccc(O)cc1)NC(=O)[C@H](CC1CCCCC1)NC(=O)c1ccc(-c2cccc(F)c2)o1` [Compound 125, 5-(3-Fluoro-phenyl)-fuiran-2-carboxylic acid {2-cyclohexyl-1-(S)-[2-(4-hydroxy-phenylamino)-1-(S)-methyl-ethylcarbamoyl]-ethyl}-amide], the inhibitory constant (Ki) was less than 100 nM.

For the compound `C[C@@H](CN1CC(C)(C)c2cc(F)ccc21)NC(=O)[C@H](CC(C)(C)C)NC(=O)C1CCOCC1` [Compound 270, Tetrahydro-pyran-4-carboxylic acid {1-(S)-[2-(5-fluoro-3,3-dimethyl-2,3-dihydro-indol-1-yl)-1-(S)-methyl-ethylcarbamoyl]-3,3-dimethyl-butyl}-amide], the Ki is less than 1000 nM.

Take `Cc1cc(NC[C@H](C)NC(=O)[C@H](CC2CCCCC2)NC(=O)c2ccc(-c3cccc(F)c3)o2)sn1` [Compound 267, 5-(3-Fluoro-phenyl)-furan-2-carboxylic acid {2-cyclohexyl-1-(S)-[1-(S)-methyl-2-(3-methyl-isothiazol-5-ylamino)-ethylcarbamoyl]-ethyl}-amide]: the inhibitory constant (Ki) is less than 1000 nM.

As to `C[C@@H](CNc1cccc(C#N)c1)NC(=O)[C@H](CC1CCCCC1)NC(=O)c1ccc(-c2cccc(F)c2)o1` [Compound 100, 5-(3-Fluoro-phenyl)-furan-2-carboxylic acid {1-(S)-[2-(3-cyano-phenylamino)-1-(S)-methyl-ethylcarbamoyl]-2-cyclohexyl-ethyl}-amide], the inhibition constant Ki is less than 100 nM.

Take `C[C@@H](CNc1cccc(C(N)=O)c1)NC(=O)[C@H](CC1CCCCC1)NC(=O)c1ccc(-c2cccc(F)c2)o1` [Compound 98, 5-(3-Fluoro-phenyl)-furan-2-carboxylic acid {1-(S)-[2-(3-carbamoyl-phenylamino)-1-(S)-methyl-ethylcarbamoyl]-2-cyclohexyl-ethyl}-amide]: the Ki is less than 100 nM.

Consider `Cc1cccc(C(=O)N[C@@H](CCC2CCCCC2)C(=O)NCCN2CCc3cc(F)ccc32)c1` [Compound 204, N-((S)-1-(2-(5-fluoroindolin-1-yl)ethylcarbamoyl)-3-cyclohexylpropyl)-3-methylbenzamide], for which the Ki is less than 1000 nM.

With `C[C@@H](CNc1ccc(S(N)(=O)=O)cc1)NC(=O)[C@H](CC1CCCCC1)NC(=O)c1ccc(-c2cccc(F)c2)o1` [Compound 138, 5-(3-Fluoro-phenyl)-furan-2-carboxylic acid {2-cyclohexyl-1-(S)-[1-(S)-methyl-2-(4-sulfamoyl-phenylamino)-ethylcarbamoyl]-ethyl}-amide], the Ki is less than 1000 nM.

Regarding `O=C(N[C@@H](CC1CCCCC1)C(=O)NCCN1CCc2cc(F)ccc21)c1ccc(-c2ccccc2)s1` [Compound 82, 5-Phenyl-thiophene-2-carboxylic acid (S)-{2-cyclohexyl-1-[2-(5-fluoro-2,3-dihydro-indol-1-yl)-ethylcarbamoyl]-ethyl}-amide], the Ki was less than 100 nM.

On to `C[C@@H](CNc1ccccc1Cl)NC(=O)[C@H](CC1CCCCC1)NC(=O)c1ccc(-c2cccc(F)c2)o1` [Compound 113, 5-(3-Fluoro-phenyl)-furan-2-carboxylic acid {1-(S)-[2-(2-chloro-phenylamino)-1-(S)-methyl-ethylcarbamoyl]-2-cyclohexyl-ethyl}-amide], for which the inhibition constant (Ki) is less than 100 nM.

On to `O=C(N[C@@H](CC1CCCCC1)C(=O)NCCN1CCc2cc(F)ccc21)C1CC1` [Compound 14, Cyclopropanecarboxylic acid (S)-{2-cyclohexyl-1-[2-(5-fluoro-2,3-dihydro-indol-1-yl)-ethylcarbamoyl]-ethyl}-amide], for which the Ki is less than 100 nM.

In the case of `C[C@@H](CN1CC(C)(C)c2cc(F)ccc21)NC(=O)[C@H](CC1CCCCC1)NC(=O)OC1CCOCC1` [Compound 215, (S,S)-{2-Cyclohexyl-1-[2-(5-fluoro-3,3-dimethyl-2,3-dihydro-indol-1-yl)-1-methyl-ethylcarbamoyl]-ethyl}-carbamic acid tetrahydro-pyran-4-yl ester], the Ki was less than 100 nM.

Turning to `C[C@@H](CNc1ccc(OC(F)(F)F)cc1)NC(=O)[C@H](CC1CCCCC1)NC(=O)c1nc(-c2cccc(F)c2)no1` [Compound 108, 3-(3-Fluoro-phenyl)-[1,2,4]oxadiazole-5-carboxylic acid {2-cyclohexyl-1-(S)-[1-(S)-methyl-2-(4-trifluoromethoxy-phenylamino)-ethylcarbamoyl]-ethyl}-amide], the inhibitory constant (Ki) was less than 100 nM.

With `CC(C)(C)C[C@H](NC(=O)OC(C)(C)C)C(=O)N[C@@H](CCS(C)(=O)=O)CN1CCc2cc(F)ccc21` [Compound 157, {1-(S)-[1-(S)-(5-Fluoro-2,3-dihydro-indol-1-ylmethyl)-3-methanesulfonyl-propylcarbamoyl]-3,3-dimethyl-butyl}-carbamic acid tert-butyl ester], the Ki is less than 100 nM.

In the case of `C[C@@H](CNc1ccc(S(C)(=O)=O)cc1)NC(=O)[C@H](CC(C)(C)C)NC(=O)c1ccc(-c2cccc(F)c2)o1` [Compound 129, 5-(3-Fluoro-phenyl)-furan-2-carboxylic acid {1-(S)-[2-(4-methanesulfonyl-phenylamino)-1-(S)-methyl-ethylcarbamoyl]-3,3-dimethyl-butyl}-amide], the inhibition constant (Ki) is less than 100 nM.

`C[C@@H](CNc1cc(Cl)ccc1F)NC(=O)[C@H](CC1CCCCC1)NC(=O)c1ccc(-c2cccc(F)c2)o1` [Compound 97, 5-(3-Fluoro-phenyl)-furan-2-carboxylic acid {1-(S)-[2-(5-chloro-2-fluoro-phenylamino)-1-(S)-methyl-ethylcarbamoyl]-2-cyclohexyl-ethyl}-amide]: the Ki is less than 1000 nM.

For `COc1cccc(C(=O)N[C@@H](CCC2CCCCC2)C(=O)NCCN2CCc3cc(OC)ccc32)c1` [Compound 16, (S)-N-{3-Cyclohexyl-1-[2-(5-methoxy-2,3-dihydro-indol-1-yl)-ethylcarbamoyl]-propyl}-3-methoxy-benzamide], the Ki was less than 10000 nM.

Turning to `C[C@@H](CN1CC(C)(C)c2cc(F)ccc21)NC(=O)[C@H](CC1CCCCC1)NC(=O)[C@H]1CCCO1` [Compound 273, Tetrahydrofuran-2-(R)-carboxylic acid {2-cyclohexyl-1-(S)-[2-(5-fluoro-3,3-dimethyl-2,3-dihydro-indol-1-yl)-1-(S)-methyl-ethylcarbamoyl]-ethyl}-amide], the inhibitory constant (Ki) is less than 100 nM.
